From US11839623B2, “Antiviral prodrugs and formulations thereof” (BOARD OF REGENTS OF THE UNIVERSITY OF NEBRASKA, priority 2018, dated 2023)

Tests used:
[1] = tested on: monocyte-derived macrophages (MDM); assay: Macrophage uptake and retention of ABC, NMABC, NPABC; assay type: cell-based, human; conditions: 100 μM, 8 hours loading
Description: Macrophage uptake and retention. Human monocytes were obtained by leukapheresis from HIV-1/2 and hepatitis B seronegative donors, and then purified by counter-current centrifugal elutriation as described (Balkundi, et al., Intl. J. Nanomed. (2011) 6:3393-3404; Nowacek, et al., Nanomed. (2009) 4(8):903-917). Human monocytes were plated in a 12-well plate at a density of 1.0×10^6 cells per well using DMEM supplemented with 10% heat-inactivated pooled human serum, 1% glutamine, 10 μg/mL ciprofloxacin, and 50 μg/mL gentamicin. Cells were maintained at 37° C. in a 5% CO2 incubator. After 7 days of differentiation in the presence of 1000 U/mL recombinant human macrophage colony stimulating factor (MCSF), MDM were treated with 100 μM ABC, nanoformulated myristoylated ABC (NMABC; described in PCT/US15/54826), or NPABC. Uptake of drug was assessed by measurements of intracellular drug concentrations at 1, 2, 4 and 8 hours after treatment. For drug retention studies, cells were treated for 8 hours then washed with PBS and maintained with half-media changes every other day until collection at days 1, 5, 10, 15 and 20. For both studies, adherent MDM were washed with PBS, then scraped into PBS, and counted at indicated time points using an Invitrogen Countess Automated Cell Counter (Carlsbad, Calif.). […] Drug content was determined by UPLC-UV/Vis.

[2] = tested on: monocyte-derived macrophages (MDM); assay: Intracellular CBV-TP in MDM after 100 μM ABC or ProTide nanoformulations (uptake and retention); assay type: cell-based; conditions: human
Description: Briefly, MDM were treated with different nanoformulations at a concentration of 100 μM for 1, 2, 4 and 8 hours. At select time points, adherent MDM were collected in 1 mL PBS after washing with 1 mL PBS twice. MDM were pelleted by centrifugation at 3,000 rpm for 8 minutes. The cell pellet was reconstituted in 200 μl methanol and probe sonication (10 seconds) was used to break the cells and extract drugs. After probe sonication, cell debris was pelleted by centrifugation at 14,000 rpm for 10 minutes and 4° C. The supernatant was analyzed for prodrug level using HPLC-UV/Vis. For retention, MDM were treated with 100 μM different nanoformulations for 8 hours. The nanoformulation-containing media were replaced with fresh media after washing MDM with PBS twice. At days 1, 5, 10, 15, 20, 25 and 30, MDM were collected in 1 mL PBS after washing with 1 mL PBS twice. The samples were processed as described above for analysis using HPLC. Intracellular CBV-TP levels were also measured for as an indicator of cell uptake and retention. Briefly, cells were scraped into PBS, pelleted by centrifugation at 3,000 rpm for 8 minutes, and reconstituted in 200 μl 70% methanol. CBV-TP was extracted, and the samples were analyzed by LC-MS/MS as described (Gautam, et al., J. Pharm. Biomed. Anal. (2018) 153:248-259).

HIV-1ADA [3] = assay: IC50 determination of ABC, MABC, PABC in MDM challenged with HIV-1ADA (RT activity); assay type: cell-based; conditions: Human immunodeficiency virus 1, 240 h, HIV-1ADA MOI 0.1, RT activity day 10, read-out: IC50 on reverse transcriptase
Description: Antiretroviral activities. Antiretroviral efficacy was determined by measurements of HIV reverse transcriptase (RT) activity. For IC50 determination, MDM were exposed to various concentrations (0.01-1000 nM) of ABC, MABC or PABC for 1 hour followed by challenge with HIV-1ADA at a multiplicity of infection (MOI) of 0.1 infectious particles per cell for 4 hours. Following viral challenge, cells were washed and incubated with the same concentration of drug used before infection for an additional 10 days in culture. Culture fluids were collected on day 10 for the measurement of RT activity. To assess antiretroviral efficacy, MDM were treated with 100 μM ABC, PABC or NPABC as described above for 8 hours. After treatment, cells were washed with PBS and cultured with fresh media, with half-media exchanges every other day. At 0, 4, 12 hours, and 1, 5, 10, 15 or 20 days after treatment, cells were challenged with HIV-1ADA at an MOI of 0.1 infectious particles per cell for 16 hours. After viral infection, the cells were cultured an additional 10 days with half-media exchanges every other day. Culture fluids were collected for measurement of RT activity. Cells were fixed with 4% PFA and expression of HIV-1 p24 antigen was determined by immunocytochemistry.

HIV-1ADA [4] = assay: Antiretroviral efficacy of nanoformulations in MDM challenged with HIV-1ADA (RT activity, p24); assay type: cell-based; conditions: 100 μM 8 hours, all time points
Description: Antiretroviral efficacy of nanoformulations: Antiviral efficacies of ABC and the ProTide nanoformulations in MDM were assessed as described (Singh, et al., Nanomedicine (2016) 11:1913-1927). MDM were treated with 100 μM different nanoformulations for 8 hours. Then nanoformulation-containing medium was replaced with fresh medium after washing MDM with PBS twice. Half media changes were conducted every other day. At predetermined time points, days 1, 5, 10, 15, 20, 25 and 30, MDM were infected with HIV-1ADA for 4 hours at a MOI of 0.1 and cultured with every-other-day half media changes for an additional 10 days. At day 10, supernatant was collected for RT assay and MDM were fixed with paraformaldehyde and immunostained for expression of HIVp24. Untreated, uninfected MDM served as negative controls (control), while MDM exposed to HIV-1ADA but not treated with nanoformulations, served as positive controls (HIV-1). For NM3ABC, a concentration response study was also conducted. MDM were treated with 1, 10, 25, 50 or 100 μM NM3ABC for 8 hours. The treated MDM were then washed twice with PBS. MDM were cultured for an additional 30 days in fresh media with half media changes every other day. At day 30, MDM were challenged with HIV-1ADA at a MOI of 0.1 for 4 hours. Excess virus was washed out with PBS and MDM were cultured for another 10 days. […]

eliminated from MDM within [1]: within a day | decrease of CBV-TP from 4 hours to 8 hours [2]: 37% | retention of CBV-TP in MDMs, detected/sustained until day ([2]; 30 day): 5 days | IC50 (HIV-1ADA [3]): 131 nM
Structure (SMILES): Nc1nc(NC2CC2)c2ncn([C@H]3C=C[C@@H](CO)C3)c2n1 [ABC, abacavir]
protection against viral infection (HIV-1ADA [4]): minimal protection against viral infection
